This note sets out measurements from patent publication US20120094311A1, “GENE AND PROTEIN EXPRESSION PROFILES ASSOCIATED WITH THE THERAPEUTIC EFFICACY OF EGFR-TK INHIBITORS” (priority 2007, published 2012).

The experiment has as its system tumor cells derived from NSCLC tumors of patients shown to be responsive to gefitinib. As to the kind of experiment: Xenograft array: SCID mice bearing patient-derived NSCLC tumors treated with IRESSA. In kind it is in vivo. The following applies: SCID mice injected with patient-derived NSCLC tumor cells; injected with 200 mg/kg of IRESSA. As for the experimental part:
Positive expression was also confirmed using a Xenograft array. To make this array, SCID mice were injected with tumor cells derived from NSCLC tumors of patients shown to be responsive to gefitinib (IRESSA®), and tumors were allowed to grow. The mice then were injected with 200 mg/kg of IRESSA®, and the mice were monitored to observe responsiveness to the drug.

As to `COc1cc2ncnc(Nc3ccc(F)c(Cl)c3)c2cc1OCCCN1CCOCC1` [IRESSA, gefitinib], the “tumors formed in the SCID mice after treatment” value is on record as “reduced or eliminated”.
